{"source": "paper PMC4239610", "about": "“A Peptide Derived from G0/G1 Switch Gene 2 Acts as Noncompetitive Inhibitor of Adipose Triglyceride Lipase” (The Journal of Biological Chemistry, 2014)", "key": {"[1]": {"test_system": "TG hydrolase activity of WAT lysates from WT animals", "experiment": "TG hydrolase activity of WAT lysates of overnight fasted WT mice", "assay_type": "biochemical, mouse", "experimental": "(§1) Adipose tissue samples from overnight fasted wild-type and Atgl-KO mice were washed in PBS (137 mM NaCl, 2.7 mM KCl, 10 mM Na2HPO4, 2 mM KH2PO4) containing 1 mM EDTA and homogenized on ice in sucrose solution (see above) using an Ultra Turrax (IKA, Staufen, Germany).\nFIGURE 4."}, "ATGL": {"test_system": "ATGL", "conditions": "cited from earlier work", "text": "Extensive research on the physiological role of ATGL has identified complex regulatory mechanisms for its activity on the transcriptional and post-translational level ([12], [13]). Direct protein-protein interaction of ATGL with the protein comparative gene identification 58 (CGI-58) increases ATGL activity up to 20-fold ([14]). Inhibition of ATGL due to direct interaction with the small, 103-amino acid protein G0/G1 switch gene 2 (G0S2) was discovered in 2010 and confirmed using human and murine proteins ([15][–][21]). The highest G0S2 expression is found in adipose tissues, but it is also pr ... || Activation of ATGL by CGI-58 is considered as fasting response upon β-adrenergic stimulation and phosphorylation of PKA ([12]). Recent studies have strengthened the role of G0S2 as the so-called master regulator of basal and stimulated lipolysis ([27]). mRNA levels of G0S2 respond strongly to hormonal stimuli, yet the dose-dependent inhibition of ATGL by G0S2 itself is reported to be independent of phosphorylation events ([18], [20], [21], [28], [29]). Thus, regulation of the expression levels of G0S2, and consequently the protein concentration, resembles a potent mean to regulate lipid mobili ... || Next, we investigated the specificity of the peptide hGW2052. ATGL and HSL together account for more than 95% of intracellular TG hydrolase activity in white adipose tissue (WAT) ([48]). For both enzymes, small molecule inhibitors are available. […] WAT lysates of WT and Atgl-KO mice were tested for TG hydrolase activity in the presence of Atglistatin, Hi 76–0079, and hGW2052. Addition of the ATGL inhibitors hGW2052 or Atglistatin redu ... || (+ 3 further places)"}, "[2]": {"test_system": "WAT TG hydrolase activity derived from Atgl-KO mice", "experiment": "TG hydrolase activity of WAT lysates of Atgl-KO mice", "assay_type": "biochemical, mouse", "conditions": "overnight fasted, 1.4 μM hGW2052, 40 μM Atglistatin, Fig. 4A", "experimental": "as §1\nFIGURE 4."}, "[3]": {"conditions": "cited from earlier work", "text": "Adipose triglyceride lipase (ATGL) hydrolyzes TGs into diacylglycerols and FAs and is required for efficient intracellular lipolysis ([7]). Global inactivation of ATGL activity leads to massive TG accumulation in all tissues, including the heart of Atgl knock-out mice ([8]). Accordingly, patients with ATGL deficiency suffer from cardiac and skeletal muscle myopathy and require heart transplants at a relatively young age ([9]). However, genetic and small molecule-mediated inactivation of ATGL is also associated with beneficial effects on plasma lipid parameters and insulin sensitivity; Atgl-KO ... || Genetic disruption of Atgl results in severe heart defects due to massive TG accumulation in cardiac muscle ([8], [55]). Thus, the application of a synthetic, competitive ATGL inhibitor, such as Atglistatin, as a therapeutic tool appears limited. […] Th ..."}, "HSL": {"test_system": "HSL", "conditions": "ref [10], [48], [49]; cited from earlier work", "experimental": "Next, we investigated the specificity of the peptide hGW2052. ATGL and HSL together account for more than 95% of intracellular TG hydrolase activity in white adipose tissue (WAT) ([48]). For both enzymes, small molecule inhibitors are available. […] WAT lysates of WT and Atgl-KO mice were tested for TG hydrolase activity in the presence of Atglistatin, Hi 76–0079, and hGW2052. Addition of the ATGL inhibitors hGW2052 or Atglistatin redu ... || To evaluate the specificity of the inhibitory peptide for ATGL, we analyzed the effect of hGW2052 on the activities of phospholipases, intracellular lipases, and extracellular lipases. ATGL belongs to the patatin domain containing family of proteins (PNPLA). […] Although PNPLA family members show high sequence conservation within their common patatin domain, no effects on lysophospholipase activities of PNPLA6 or PNPLA7 could b ..."}, "mATGL [4]": {"test_system": "mATGL", "experiment": "TG hydrolase activity, E. coli expressed mATGL, CGI-58 activated, hG0S2 truncations (Fig. 1C-E)", "assay_type": "biochemical, mouse", "conditions": "mATGL E. coli extract (50 μg), 2.5 μg purified mCGI-58, 30 μg lysate of E. coli expressing hG0S2 variant, [3H]triolein, triplicates", "experimental": "(§2) Protein concentrations were determined as described below.\n(§3) FIGURE 1. Minimal sequence requirements of human G0S2 for ATGL inhibition. A, graphical representation of full-length and shortened versions of hG0S2, those capable of inhibiting ATGL activity are illustrated in black. The largely hydrophobic sequence stretch from Val-28 to Met-42 is depicted in light gray. B–E, activity assays were performed in the presence of CGI-58 as indicated by an asterisk (ATGL*). G0S2 and variants thereof were expressed in E. coli and added as cell lysates. Overexpressed mATGL from E. coli lysates was used for all assays with the exception of the assay shown in B. B, inhibition of TG hydrolase activity of mATGL containing COS-7 cell extracts by WT and C-terminally truncated hG0S2 variants. C, inhibition of TG hydrolase activity of mATGL by WT and C-terminally truncated hG0S2 variants. D, inhibition of TG hydrolase activity of mATGL by WT hG0S2 and variants with N-terminal deletions. E, effect of different N- and C-terminal truncations in hG0S2 on mATGL activity. The fusion tag smt3 is shown as control."}, "mATGL [5]": {"test_system": "mATGL", "experiment": "TG hydrolase activity, COS-7 cell extracts containing mATGL, CGI-58 activated (Fig. 1B)", "assay_type": "biochemical, mouse", "conditions": "COS-7 cell extract with mATGL, hG0S2 variants as E. coli cell lysates (30 μg), [3H]triolein substrate, triplicates", "experimental": "as §2\nCells were harvested 48 h after transfection. […] Protein concentrations were determined as described below.\nas §3"}, "[6]": {"conditions": "single administration to mice, ref [10]"}}, "note": "pIC50: −log10 of the molar value.", "data": [{"compound": "CN(C)C(=O)Nc1cccc(-c2ccc(N(C)C)cc2)c1", "note": "[Atglistatin]", "values": [{"measurement": "reduction of TG hydrolase activity of WAT lysates", "setting": "[1]; 40 μM Atglistatin, Fig. 4A", "value": 49, "unit": "%"}, {"measurement": "IC50 for ATGL (in words)", "setting": "ATGL; Atglistatin elsewhere ref [10]", "value": "low micromolar range"}, {"measurement": "dependence of ATGL inhibition on CGI-58", "setting": "ATGL; ref [10], [13]", "value": "independent of the presence of CGI-58"}, {"measurement": "mode of ATGL inhibition", "setting": "ATGL; ref [10], [13]", "value": "inhibits ATGL in a competitive manner"}, {"measurement": "specificity of inhibition (in words), ATGL", "setting": "ATGL; ref [10], [48], [49]", "value": "act as specific inhibitors for ATGL and HSL, respectively"}, {"measurement": "inhibition of WAT TG hydrolase activity, Atgl-KO (result in words)", "setting": "[2]", "value": "Neither hGW2052 nor Atglistatin inhibited WAT TG hydrolase activity derived from Atgl-KO mice"}, {"measurement": "plasma FA and TG concentrations", "setting": "[3]; WT mice, ref [8], [10]", "value": "reduced plasma FA and TG concentrations"}, {"measurement": "TG accumulation in tissues", "setting": "[3]; [6]", "value": "TG accumulation in liver but not the heart"}, {"measurement": "tissue accumulation of the inhibitor", "setting": "[3]; [6]", "value": "accumulation of the inhibitor in liver and adipose tissues"}]}, {"compound": "CN(C(=O)n1cncn1)c1ccccc1", "note": "[Hi 76-0079, N-methyl-phenyl carbamoyl triazole]", "values": [{"measurement": "reduction of TG hydrolase activity of WAT lysates", "setting": "[1]; 25 μM Hi 76-0079, Fig. 4A", "value": 67, "unit": "%"}, {"measurement": "specificity of inhibition (in words), HSL", "setting": "HSL", "value": "act as specific inhibitors for ATGL and HSL, respectively"}]}, {"compound": "CCCCCCCC/C=C\\CCCCCCCC(=O)SCCNC(=O)CCNC(=O)[C@H](O)C(C)(C)COP(=O)(O)OP(=O)(O)OC[C@H]1O[C@@H](n2cnc3c(N)ncnc32)[C@H](O)[C@@H]1OP(=O)(O)O", "note": "[oleoyl-CoA]", "values": [{"measurement": "pIC50", "setting": "ATGL; ref [13]", "value": 4.48}]}, {"compound": "hG0S2 Gly-30–Ala-52: N- and C-terminally truncated hG0S2, Gly-30–Ala-52 (GSVLALFGVVLGLMETVCSPFTA; UniProt P27469 30-52, looked up, fragment)", "values": [{"measurement": "inhibition of TG hydrolase activity (result in words)", "setting": "mATGL [4]", "value": "had lost all inhibitory activity"}]}, {"compound": "hG0S2 Leu-10–Ala-52: N- and C-terminally truncated hG0S2, Leu-10–Ala-52 (LAKEMMAQKRKGKMVKLYVLGSVLALFGVVLGLMETVCSPFTA; UniProt P27469 10-52, looked up, fragment)", "values": [{"measurement": "inhibition of TG hydrolase activity (result in words)", "setting": "mATGL [4]", "value": "fully retained their activity to inhibit ATGL"}]}, {"compound": "hG0S2 Lys-20–Met-43: N- and C-terminally truncated hG0S2, Lys-20–Met-43 (KGKMVKLYVLGSVLALFGVVLGLM; UniProt P27469 20-43, looked up, fragment)", "values": [{"measurement": "inhibition of TG hydrolase activity (result in words)", "setting": "mATGL [4]", "value": "neither hG0S2 Tyr-27–Ala-52 nor hG0S2 Lys-20–Met-43 exhibited full inhibitory capacity"}, {"measurement": "inhibition of TG hydrolase activity (result in words)", "setting": "mATGL [4]; listed as Lys-20–Met-43", "value": "did not result in G0S2 variants that were able to inhibit ATGL efficiently"}]}, {"compound": "hG0S2 truncated at residue Leu-40: hG0S2 truncated at residue Leu-40 (C-terminal truncation) (METVQELIPLAKEMMAQKRKGKMVKLYVLGSVLALFGVVL; UniProt P27469 1-40, looked up, fragment)", "values": [{"measurement": "inhibition of TG hydrolase activity (result in words)", "setting": "mATGL [5]", "value": "Inhibition was significantly reduced"}]}, {"compound": "hG0S2_1–43: C-terminally truncated hG0S2 variant Met-1–Met-43 (METVQELIPLAKEMMAQKRKGKMVKLYVLGSVLALFGVVLGLM; UniProt P27469 1-43, looked up, fragment)", "values": [{"measurement": "inhibition of TG hydrolase activity (result in words)", "setting": "mATGL [4]", "value": "still exerts the full inhibitory effect on ATGL"}, {"measurement": "inhibition of TG hydrolase activity (result in words)", "setting": "mATGL [4]; listed as Met-1–Met-43", "value": "fully able to inhibit ATGL"}]}]}
